# Data taken from patent US12053522B2, “Pro-inflammatory and anti-cancer functions of toll-like receptor 4 antagonists” (Children's Medical Center Corporation, priority 2015, dated 2024).
# How the values were obtained:
# TLR4 = target: T1, TLR4 (Mus musculus, UniProt Q9JHF9+Q9QUK6); test: TLR4 endocytosis (surface staining, flow cytometry); format: cell-based; details: cycloheximide treatment
# T1 construct: endogenous in cells; host or cells: iMΦ, primary bone marrow derived MΦ and DCs
# T1 sequence (Q9QUK6 26-835): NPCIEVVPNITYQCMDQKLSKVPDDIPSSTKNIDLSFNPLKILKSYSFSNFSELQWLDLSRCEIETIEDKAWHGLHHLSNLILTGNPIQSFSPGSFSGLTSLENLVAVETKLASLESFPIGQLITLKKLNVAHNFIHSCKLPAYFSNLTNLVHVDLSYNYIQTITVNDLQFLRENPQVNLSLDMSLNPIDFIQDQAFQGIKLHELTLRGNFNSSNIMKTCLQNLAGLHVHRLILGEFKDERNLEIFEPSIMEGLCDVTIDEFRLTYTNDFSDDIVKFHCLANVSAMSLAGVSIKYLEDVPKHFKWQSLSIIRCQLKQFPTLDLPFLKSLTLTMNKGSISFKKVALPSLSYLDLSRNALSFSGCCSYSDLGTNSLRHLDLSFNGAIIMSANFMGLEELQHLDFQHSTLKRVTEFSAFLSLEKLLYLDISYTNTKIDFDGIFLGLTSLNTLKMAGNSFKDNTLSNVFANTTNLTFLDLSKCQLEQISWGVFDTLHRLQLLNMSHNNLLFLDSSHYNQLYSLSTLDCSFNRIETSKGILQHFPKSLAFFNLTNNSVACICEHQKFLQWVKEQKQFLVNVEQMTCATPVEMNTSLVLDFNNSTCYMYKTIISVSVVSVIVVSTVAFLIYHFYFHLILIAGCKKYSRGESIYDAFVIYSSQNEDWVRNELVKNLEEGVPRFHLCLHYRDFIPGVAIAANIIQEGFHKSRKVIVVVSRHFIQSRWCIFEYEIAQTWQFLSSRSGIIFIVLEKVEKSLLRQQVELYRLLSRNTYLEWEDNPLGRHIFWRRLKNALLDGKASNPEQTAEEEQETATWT
# T1 sequence (Q9JHF9 19-160): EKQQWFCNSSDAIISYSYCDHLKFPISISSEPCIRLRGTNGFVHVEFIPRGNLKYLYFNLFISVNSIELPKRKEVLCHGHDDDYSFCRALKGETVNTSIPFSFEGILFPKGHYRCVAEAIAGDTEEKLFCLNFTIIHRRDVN
# Method: (§1) primary bone marrow derived MΦs and DCs or splenic DCs (0.5×10^6) of the indicated genotypes were treated with E. coli LPS, oxPAPC or chemical inhibitors for the indicated time points at 37° C. Cells were then washed with 1 mL cold PBS and stained for appropriate antibodies on ice for 20 to 30 minutes. 2% mouse serum or rat serum were used as the blocking reagent to reduce non-specific binding of the antibodies. The stained cells were then washed with 1 mL cold PBS and resuspended in 200 μL PBS. Staining of the surface receptors was analyzed with BD FACSCanto II. The mean fluorescence intensity (MFI) of CD14, TLR4 from unstimulated or stimulated cells was recorded. The percentage of surface receptor staining at indicated time points, which is the ratio of the MFI values measured from the stimulated cells to those measured from the unstimulated cells, was plotted to reflect the efficiency of receptor endocytosis. For measuring the extent of TLR4/MD-2 dimerization, the percentage of TLR4/MD2 dimer was calculated by 100%−the percentage of TLR4/MD-2 monomer. The percentage of the TLR4/MD-2 monomer was determined by the ratio of the MFI values (obtained from MTS510 antibody staining) of the stimulated cells to those of the unstimulated cells were indicated. Cells were stained with anti-MHC class II or anti-CD40 antibodies.
# CD14 = target: T2, CD14 (Mus musculus, UniProt P10810); test: CD14 endocytosis (surface staining, flow cytometry); format: cell-based; details: protein synthesis blocked with cycloheximide
# T2 construct: endogenous in cells; host or cells: iMΦ, primary bone marrow derived MΦ and DCs
# T2 sequence (P10810 16-336 limits assumed): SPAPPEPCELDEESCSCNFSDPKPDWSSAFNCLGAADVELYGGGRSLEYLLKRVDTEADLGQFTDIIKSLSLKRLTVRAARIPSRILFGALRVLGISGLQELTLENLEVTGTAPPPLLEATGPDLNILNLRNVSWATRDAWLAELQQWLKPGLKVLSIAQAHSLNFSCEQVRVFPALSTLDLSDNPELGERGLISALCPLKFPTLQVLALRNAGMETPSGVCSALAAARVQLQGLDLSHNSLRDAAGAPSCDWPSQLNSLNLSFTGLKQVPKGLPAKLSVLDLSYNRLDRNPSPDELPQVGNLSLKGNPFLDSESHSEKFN
# Method: as §1
# DCs = test: TNFα secretion from DCs (ELISA); format: cell-based, mouse; details: LPS-primed DCs
# From the text: C57BL/6J (Jax 000664), C57BL/6NJ (Jax 005304), CD14 KO (Jax 003726), caspase-1/-11 dKO mice (Jax 016621), TLR4-mutant (C3H/HeJ, Jax 000659), and wild-type control for TLR4-mutant (C3H/HeSNJ, Jax 000661) were purchased from Jackson Labs. NLRP3 KO and ASC KO mice were kindly provided by Dr. T. Horng, Harvard School of Public Health. Caspase-11 KO mice were kindly provided by Dr. Junying Yuan, Harvard Medical School. Caspase-1 single KO mice were kindly provided by Thirumala-Devi Kanneganti (St. Judes). DCs were differentiated from bone marrow in IMDM (Gibco), 10% B16-GM-CSF derived supernatant, 2 μM 2-mercaptoethanol and 10% FBS and used after 6 day of culture. DC purity was assessed by flow cytometry and was usually higher than 90%. MO were differentiated from bone marrow in DMEM (Gibco), 30% L929 supernatant, and 10% FBS. Immortal MΦs were cultured in DMEM supplemented with 10% L929 supernatant and 10% FBS. Splenic DCs were purified as described previously (Zanoni et al., 2012). Prior to stimulations, cultured cells were washed and re-plated in DMEM supplemented with 10% FBS at a concentration of 1×10^6 cells/ml in a final volume of 100 μl. For experiments using pan-caspase inhibitor, cells were treated with zVADfmk (20 μM) 30 min before inflammasome activation stimuli addition. […]
# RNA was isolated from cell cultures using Qiashedder (Qiagen) and GeneJET RNA Purification Kit (Life Technologies). Purified RNA was analyzed for gene expression on a CFX384 real time cycler (Bio-rad) using TaqMan RNA-to-CT 1-Step Kit (Applied Biosystems) with probes purchased from Life Technologies specific for viperin (Mm00491265_m1), IFNb1 (Mm00439552_s1), IL6 (Mm00446190_m1), caspase-1 (Mm00438023_m1), caspase-11 (Mm00432307_m1), Nlrp3 (Mm00840904_m1), Asc (Mm00445747_g1), TBP (Mm00446971_m1) or GAPDH (Mm99999915_g1). ELISA for IL-1β, IL-2, IL-17, IL-18, TNFα and IFNγ were performed using Mouse Ready-SET-Go ELISA kits (eBioscience). […] Cell associated cytokines were measured as follows: 96-well plates were centrifuged and supernatant was discarded. […]
# bone marrow derived DCs = test: IL-1β release from DCs (ELISA); format: cell-based, mouse; details: for IL-1β release: LPS-primed DCs
# Method: NLRP3 KO and ASC KO mice were kindly provided by Dr. T. Horng, Harvard School of Public Health. Caspase-11 KO mice were kindly provided by Dr. Junying Yuan, Harvard Medical School. Caspase-1 single KO mice were kindly provided by Thirumala-Devi Kanneganti (St. Judes). DCs were differentiated from bone marrow in IMDM (Gibco), 10% B16-GM-CSF derived supernatant, 2 μM 2-mercaptoethanol and 10% FBS and used after 6 day of culture. […] MO were differentiated from bone marrow in DMEM (Gibco), 30% L929 supernatant, and 10% FBS. Immortal MΦs were cultured in DMEM supplemented with 10% L929 supernatant and 10% FBS. […] For experiments using pan-caspase inhibitor, cells were treated with zVADfmk (20 μM) 30 min before inflammasome activation stimuli addition. Cycloheximide (50 ng/ml) was added at the time of stimuli administration. Transfection with DOTAP was performed following the manufacturer instructions. […] 30 min later, the DOTAP/LPS or DOTAP/oxPAPC complex were added to the culture.
# RNA was isolated from cell cultures using Qiashedder (Qiagen) and GeneJET RNA Purification Kit (Life Technologies). Purified RNA was analyzed for gene expression on a CFX384 real time cycler (Bio-rad) using TaqMan RNA-to-CT 1-Step Kit (Applied Biosystems) with probes purchased from Life Technologies specific for viperin (Mm00491265_m1), IFNb1 (Mm00439552_s1), IL6 (Mm00446190_m1), caspase-1 (Mm00438023_m1), caspase-11 (Mm00432307_m1), Nlrp3 (Mm00840904_m1), Asc (Mm00445747_g1), TBP (Mm00446971_m1) or GAPDH (Mm99999915_g1). ELISA for IL-1β, IL-2, IL-17, IL-18, TNFα and IFNγ were performed using Mouse Ready-SET-Go ELISA kits (eBioscience). To measure secreted cytokines, supernatant were collected, clarified by centrifugation and stored at −20° C. Cell associated cytokines were measured as follows: 96-well plates were centrifuged and supernatant was discarded. 250 μl of PBS were added to each well. Cells were frozen and thawed two times at −80° C. and then stored at −20° C. for further analysis.
# inflammasome in DCs = test: Inflammasome activation (FIGS. 6-42); format: cell-based
# [1] = target: T3, catalytic mutant caspase-11 full length (C254A) (Mus musculus, UniProt P70343, C254A); test: SPR analysis of lipid binding to immobilized full length caspase-11 (C254A)
# T3 construct: recombinant catalytic mutant caspase-11 full length (C254A); His; made in house; host or cells: SF-21 insect cells (baculovirus)
# T3 sequence (P70343 81-373 C254A): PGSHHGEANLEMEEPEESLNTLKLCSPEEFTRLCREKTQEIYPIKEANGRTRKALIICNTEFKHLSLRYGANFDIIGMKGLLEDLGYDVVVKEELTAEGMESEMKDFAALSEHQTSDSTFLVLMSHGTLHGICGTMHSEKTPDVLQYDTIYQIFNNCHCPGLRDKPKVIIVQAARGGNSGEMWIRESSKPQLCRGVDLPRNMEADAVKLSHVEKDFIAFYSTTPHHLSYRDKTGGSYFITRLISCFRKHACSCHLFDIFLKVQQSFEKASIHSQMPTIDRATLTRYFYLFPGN
# Method: For studies to measure the direct binding of oxPAPC to caspase-11, proteins and SPR analysis was performed as described (Shi, J., et al., (2014b) Nature). Briefly, the recombinant catalytic mutant caspase-11 full length (C254A) and caspase-11 ΔN59 (C254A) were purified from P3 baculovirus infected SF-21 insect cells that were cultured in Sf900™ II SFM for 72 h at 28° C. Cells were lysed in lysis buffer containing 1% Triton X-100, 50 mM Tris-HCl (pH 7.6), 300 mM NaCl, 50 mM imidazole and 5 mM 2-mercaptoethanol. Ni-NTA beads (Qiagen) were used to purify His-tagged proteins from lysates. Proteins were released from the beads with elution buffer containing 50 mM Tris-HCl (pH 7.6), 250 mM imidazole and 300 mM NaCl. Imidazole was removed by dialysis. The proteins were further purified with HiTrap Q column and Superdex G200 column (GE Healthcare Life Sciences) to reach high homogeneity.
# For surface plasmon resonance (SPR) analysis, BIAcore T100 SPR instrument (GE Healthcare) was used to measure the ligand binding kinetics. The assays were performed in a buffer containing 150 mM NaCl, 3 mM EDTA, 50 mM HEPES (pH 7.5) and 0.005% Tween-20 at 25° C. […] The KD values were calculated by fitting result curves (subtracted the control flow cell value) to a 1:1 Langmuir binding model with the BIAcore T100 evaluation software.
smiles,measurement,setting,value
C[C@@H]1C[C@@H]([C@H](O)CC2CC(=O)NC(=O)C2)C(=O)[C@@H](C)C1 [cycloheximide],TLR4 internalization or dimerization,TLR4,did not affect
same,extent of oxPAPC- or LPS-induced CD14 endocytosis,CD14,enhanced
"CCCCCCCCCCCCCCCC(=O)OC[C@H](COP(=O)([O-])OCC[N+](C)(C)C)OC(=O)CCCC(=O)/C=C/C(=O)O [KOdiA-PC, 1-(Palmitoyl)-2-(5-keto-6-octene-dioyl) phosphatidylcholine]",TNFα release,DCs,not affected
same,IL-1β release,bone marrow derived DCs,able to elicit IL-1β secretion
same,inflammasome activation,inflammasome in DCs,activated the inflammasome in DCs
CCN(CC)CCCC(C)Nc1ccnc2cc(Cl)ccc12 (stereo not drawn) [chloroquine],IL-1β release from DCs,"bone marrow derived DCs; chloroquine pre-treatment, LPS-primed, oxPAPC-treated",promoted slightly more release of IL-1β
"CCCCCCCCCCCCCC(=O)OC[C@H](COP(=O)([O-])OCC[N+](C)(C)C)OC(=O)CCCCCCCCCCCCC [DMPC, 1,2-dimyristoyl-sn-glycero-3-phosphocholine]",TNFα release,DCs,not affected
same,binding to immobilized caspase-11(C254A) on SPR,[1],did not bind detectably
same,IL-1β release,bone marrow derived DCs,unable to elicit IL-1β release
